Measurements: publication PMC7150977, “Regional Intestinal Drug Permeability and Effects of Permeation Enhancers in Rat” (Pharmaceutics, 2020)
Read-outs that look alike come from different tables or passages of the source. Values belong to the compound of their own block, whether it stands above or below them.

Key:
jejunum and colon [1] = assay: Regional comparison (jejunum vs colon, pH 6.5 vs 7.4) of Peff in rat SPIP; type: in vivo; conditions: plasma appearance
Procedure: The ratio was compared using the paired student’s t-test with the Benjamini–Hochberg multiple t-test correction. Multiple comparisons between groups were performed using a two-way ANOVA with a post-hoc Holm–Sidak multiple comparison test. Log transformation of values was performed when the original measured data were heteroscedastic and not normally distributed; this was investigated using the Bartlett test. Differences were considered to be statistically significant for p-values < than 0.05.

[2] = First-pass extraction (Ffirstpass) in rat intestine and liver; type: in vivo; conditions: based on literature data, iv plasma CL and liver blood flow 47 mL/min/kg
colon [3] = conditions: control solutions, mean ±SD, n = 38
Procedure: A linear regression analysis of the plasma samples was made to obtain a corresponding plasma value for each perfusate sample. The blood-to-lumen CLCr-EDTA was calculated using Equation (1) [16]. (1) CLCr−EDTA=Cperfusate × Qin/Cplasma × tissue weight ×100 where Cperfusate and Cplasma is the activity in the perfusate and plasma (cpm/mL), and Qin is the flow rate (mL/min). CLCr-EDTA was determined during the last 45 min for the control solution and during the last 60 min for the test solutions, of which the first 15 min of each period were for equilibration.

jejunum [4] = tested on: jejunum; design: method as in PMID 31201856; conditions: rat jejunum SPIP, cited from earlier work
jejunum [5] = assay: Rat single-pass intestinal perfusion (SPIP), jejunal lumen-to-blood Peff from plasma appearance; type: in vivo; conditions: 100 µM, mean ±SD, n = 6
jejunum and colon [6] = conditions: human study; cited from earlier work
[7] = design: method as in PMID 9836611; conditions: n-octanol-water; cited from earlier work
colon [8] = conditions: male, Han Wistar, rat, in vivo, 60 min, 100 µM
intestine [9] = conditions: pH 6.5, human SPIP model; cited from earlier work
intestine [10] = conditions: pH 6.5, rat SPIP model; cited from earlier work
[11] = design: method as in patent wo2012080471, 6; conditions: dog, oral with permeation enhancer; ref patent wo2012080471, 6; cited from earlier work
[12] = Jejunum pH 6.5, control solution
[13] = Jejunum pH 7.4, control solution

- difference in jejunal and colonic basal Peff (jejunum and colon [1]): no differences
- Ffirstpass (first-pass extraction compensation value) [2]: 1.0
Compound: CC(C)NCC(O)COc1ccc(CC(N)=O)cc1 (centres unmarked) [Atenolol, atenolol]

- colonic CLCr-EDTA (blood-to-lumen clearance) (colon [3]): 0.038 ± 0.050 mL/min/100 g
Compound: O=C([O-])CN(CCN(CC(=O)[O-])CC(=O)[O-])CC(=O)[O-].[51Cr+3] [Cr-EDTA, ^51chromium-labeled ethylenediaminetetraacetate]

- difference in jejunal and colonic basal Peff (jejunum and colon [1]): no differences
- Plasma Appearance Peff (jejunum [5]; [12]): 0.005 ± 0.004 ×10^–4 cm/s
- Plasma Appearance Peff (jejunum [5]; [13]): 0.004 ± 0.001 ×10^–4 cm/s
Compound: C[C@H](N[C@@H](CCc1ccccc1)C(=O)O)C(=O)N1CCC[C@H]1C(=O)O [Enalaprilat, enalaprilat]
- permeability from luminal disappearance compared to plasma appearance (times higher) (jejunum [4]; same rat): > 10 times

Compound: CC(C(=O)O)c1cccc(C(=O)c2ccccc2)c1 (centres unmarked) [Ketoprofen, ketoprofen]
- difference between permeability from luminal disappearance and plasma appearance (jejunum [4]): no differences
- difference between permeability from luminal disappearance and plasma appearance (jejunum and colon [6]): no differences

Compound: COCCc1ccc(OCC(O)CNC(C)C)cc1 (centres unmarked) [Metoprolol, metoprolol]
- difference between permeability from luminal disappearance and plasma appearance (jejunum [4]): no differences
- difference between permeability from luminal disappearance and plasma appearance (jejunum and colon [6]): no differences
- Log P [7]: 2.07
- Ffirstpass (first-pass extraction compensation value) [2]: 0.22
- Plasma Appearance Peff (jejunum [5]; [12]): 0.28 ± 0.24 ×10^–4 cm/s
- Plasma Appearance Peff (jejunum [5]; [13]): 0.17 ± 0.095 ×10^–4 cm/s
- Plasma Appearance Peff (colon [8]; pH 6.5): 0.41 ± 0.19 ×10^–4 cm/s
- Plasma Appearance Peff (colon [8]; pH 7.4): 0.38 ± 0.15 ×10^–4 cm/s

Compound: CCCCCCCCCC(=O)[O-].[Na+] [caprate, sodium caprate]
- permeation enhancing effect (intestine [9]): no permeation enhancing effect
- permeation enhancing effect (intestine [10]): no permeation enhancing effect

Compound: semaglutide
- bioavailability [11]: 0.29 % of the oral dose
